Data taken from patent US20210045385A1, “PYRIDAZINONE-SUBSTITUTED KETOXIMES AS HERBICIDES” (FMC Corporation, priority 2018, published 2021).

Columns and labels:
Format in all cases: in vivo
[1] = tested on: ragweed (common ragweed, Ambrosia elatior); assay: Test A preemergence, visual plant response rating; conditions: approx. 10 days
Summary of the method: (§1)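 Formulated in a non-phytotoxic solvent mixture including surfactant, each test chemical was sprayed onto the soil surface after sowing, or onto seedlings 2 to 10 cm high. Roughly 10 days later, plants were compared with untreated controls and rated for injury from 0 (no effect) to 100 (complete control).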

[2] = tested on: Italian ryegrass (Lolium multiflorum); assay: Test A preemergence, visual plant response rating; conditions: approx. 10 days
Summary of the method: as §1

[3] = tested on: barnyardgrass (Echinochloa crus-galli); assay: Test A preemergence, visual plant response rating; conditions: approx. 10 days
Summary of the method: as §1

[4] = tested on: pigweed (Amaranthus retroflexus); assay: Test A preemergence, visual plant response rating; conditions: approx. 10 days
Summary of the method: as §1

kochia (Kochia scoparia) [5] = assay: Test A preemergence, visual plant response rating; conditions: approx. 10 days
Summary of the method: as §1

[6] = tested on: foxtail, green (green foxtail, Setaria viridis); assay: Test A preemergence, visual plant response rating; conditions: approx. 10 days
Summary of the method: as §1

[7] = tested on: ragweed (common ragweed, Ambrosia elatior); assay: Test A postemergence, visual plant response rating; conditions: for Ragweed plant response rating (0 to 100 scale): 500 g ai/ha, postemergence, 0 is no effect, 100 is complete control; for Ragweed plant response rating: Postemergence, 125 g ai/ha, 0 to 100 scale (0 no effect, 100 complete control)
Summary of the method: as §1

[8] = tested on: blackgrass (Alopecurus myosuroides); assay: Test A postemergence, visual plant response rating; conditions: for Blackgrass plant response rating (0 to 100 scale): 500 g ai/ha, postemergence, 0 is no effect, 100 is complete control; for Blackgrass plant response rating: Postemergence, 125 g ai/ha, 0 to 100 scale (0 no effect, 100 complete control)
Summary of the method: as §1

[9] = tested on: Italian ryegrass (Lolium multiflorum); assay: Test A postemergence, visual plant response rating; conditions: for Ryegrass, Italian plant response rating (0 to 100 scale): 500 g ai/ha, postemergence, 0 is no effect, 100 is complete control; for Ryegrass, Italian plant response rating: Postemergence, 125 g ai/ha, 0 to 100 scale (0 no effect, 100 complete control)
Summary of the method: as §1

[10] = tested on: barnyardgrass (Echinochloa crus-galli); assay: Test A postemergence, visual plant response rating; conditions: for Barnyardgrass plant response rating (0 to 100 scale): 500 g ai/ha, postemergence, 0 is no effect, 100 is complete control; for Barnyardgrass plant response rating: Postemergence, 125 g ai/ha, 0 to 100 scale (0 no effect, 100 complete control)
Summary of the method: as §1

[11] = tested on: pigweed (Amaranthus retroflexus); assay: Test A postemergence, visual plant response rating; conditions: for Pigweed plant response rating (0 to 100 scale): 500 g ai/ha, postemergence, 0 is no effect, 100 is complete control; for Pigweed plant response rating: Postemergence, 125 g ai/ha, 0 to 100 scale (0 no effect, 100 complete control)
Summary of the method: as §1

corn (Zea mays) = assay: Test A postemergence, visual plant response rating; conditions: for Corn plant response rating (0 to 100 scale): 500 g ai/ha, postemergence, 0 is no effect, 100 is complete control; for Corn plant response rating: Postemergence, 125 g ai/ha, 0 to 100 scale (0 no effect, 100 complete control)
Summary of the method: as §1

kochia (Kochia scoparia) [12] = assay: Test A postemergence, visual plant response rating; conditions: for Kochia plant response rating (0 to 100 scale): 500 g ai/ha, postemergence, 0 is no effect, 100 is complete control; for Kochia plant response rating: Postemergence, 125 g ai/ha, 0 to 100 scale (0 no effect, 100 complete control)
Summary of the method: as §1

[13] = tested on: wheat (Triticum aestivum); assay: Test A postemergence, visual plant response rating; conditions: for Wheat plant response rating (0 to 100 scale): 500 g ai/ha, postemergence, 0 is no effect, 100 is complete control; for Wheat plant response rating: Postemergence, 125 g ai/ha, 0 to 100 scale (0 no effect, 100 complete control)
Summary of the method: as §1

[14] = tested on: foxtail, green (green foxtail, Setaria viridis); assay: Test A postemergence, visual plant response rating; conditions: for Foxtail, Green plant response rating (0 to 100 scale): 500 g ai/ha, postemergence, 0 is no effect, 100 is complete control; for Foxtail, Green plant response rating: Postemergence, 125 g ai/ha, 0 to 100 scale (0 no effect, 100 complete control)
Summary of the method: as §1

[15] = tested on: galium (catchweed bedstraw, Galium aparine); assay: Test A postemergence, visual plant response rating; conditions: for Galium plant response rating (0 to 100 scale): 500 g ai/ha, postemergence, 0 is no effect, 100 is complete control; for Galium plant response rating: Postemergence, 125 g ai/ha, 0 to 100 scale (0 no effect, 100 complete control)
Summary of the method: as §1

rice (Oryza sativa) = assay: Test B flooded paddy test, visual plant response rating; conditions: 250 g ai/ha, Flood, applied to paddy water, 2-leaf stage, evaluated after 13 to 15 days
Summary of the method: (§2)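 Flooded-pot treatment: water 3 cm over the soil, chemical delivered into that water, depth unchanged for the duration. Assessed by eye versus controls following 13–15 greenhouse days; plants were at 2 leaves when dosed.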

[16] = tested on: ducksalad (Heteranhera limosa); assay: as above; conditions: 250 g ai/ha, Flood, applied to paddy water, 2-leaf stage, evaluated after 13 to 15 days
Summary of the method: as §2

[17] = tested on: barnyardgrass (Echinochloa crus-galli); assay: as above; conditions: 250 g ai/ha, Flood, applied to paddy water, 2-leaf stage, evaluated after 13 to 15 days
Summary of the method: as §2

[18] = tested on: sedge, umbrella (small-flower umbrella sedge, Cyperus difformis); assay: as above; conditions: 250 g ai/ha, Flood, applied to paddy water, 2-leaf stage, evaluated after 13 to 15 days
Summary of the method: as §2

SMILES	Ragweed plant response rating (0 to 100 scale) ([1]; 125 g ai/ha Preemergence)	Ragweed plant response rating (0 to 100 scale) ([1]; 500 g ai/ha Preemergence)	Ryegrass, Italian plant response rating (0 to 100 scale) ([2]; 125 g ai/ha Preemergence)	Ryegrass, Italian plant response rating (0 to 100 scale) ([2]; 500 g ai/ha Preemergence)	Barnyardgrass plant response rating (0 to 100 scale) ([3]; 125 g ai/ha Preemergence)	Barnyardgrass plant response rating (0 to 100 scale) ([3]; 500 g ai/ha Preemergence)	Pigweed plant response rating (0 to 100 scale) ([4]; 125 g ai/ha Preemergence)	Pigweed plant response rating (0 to 100 scale) ([4]; 500 g ai/ha Preemergence)	Kochia plant response rating (0 to 100 scale) (kochia (Kochia scoparia) [5]; 125 g ai/ha Preemergence)	Kochia plant response rating (0 to 100 scale) (kochia (Kochia scoparia) [5]; 500 g ai/ha Preemergence)	Foxtail, Green plant response rating (0 to 100 scale) ([6]; 125 g ai/ha Preemergence)	Foxtail, Green plant response rating (0 to 100 scale) ([6]; 500 g ai/ha Preemergence)	Ragweed plant response rating (0 to 100 scale) [7]	Ragweed plant response rating [7]	Blackgrass plant response rating (0 to 100 scale) [8]	Blackgrass plant response rating [8]	Ryegrass, Italian plant response rating (0 to 100 scale) [9]	Ryegrass, Italian plant response rating [9]	Barnyardgrass plant response rating (0 to 100 scale) [10]	Barnyardgrass plant response rating [10]	also measured
Cc1ccccc1/C(=N\OC(C)C)c1c(O)c(C)nn(C)c1=O [Compound 20]	30	90	30	70	20	70	80	100	0	0	0	60	80	60	60	20	50	20	50	30	Pigweed plant response rating (0 to 100 scale) [11]: 70; Pigweed plant response rating [11]: 60; Corn plant response rating (0 to 100 scale) (corn (Zea mays)): 0; Corn plant response rating (corn (Zea mays)): 0; Kochia plant response rating (0 to 100 scale) (kochia (Kochia scoparia) [12]): 50; Kochia plant response rating (kochia (Kochia scoparia) [12]): 0; Wheat plant response rating (0 to 100 scale) [13]: 0; Wheat plant response rating [13]: 0; Foxtail, Green plant response rating (0 to 100 scale) [14]: 60; Foxtail, Green plant response rating [14]: 30; Galium plant response rating (0 to 100 scale) [15]: 90; Galium plant response rating [15]: 80; Plant response rating, Rice (0 to 100 scale, 0 is no effect, 100 is complete control) (rice (Oryza sativa)): 0; Plant response rating, Ducksalad (0 to 100 scale, 0 is no effect, 100 is complete control) [16]: 0; Plant response rating, Barnyardgrass (0 to 100 scale, 0 is no effect, 100 is complete control) [17]: 0; Plant response rating, Sedge, Umbrella (0 to 100 scale, 0 is no effect, 100 is complete control) [18]: 0
Cc1cccc(/C(=N\O)c2c(O)c(C)nn(C)c2=O)c1 [Compound 21]	0	0	0	0	0	0	0	0	0	0	0	0	20	0	0	0	20	0	0	0	Pigweed plant response rating (0 to 100 scale) [11]: 60; Pigweed plant response rating [11]: 0; Corn plant response rating (0 to 100 scale) (corn (Zea mays)): 0; Corn plant response rating (corn (Zea mays)): 0; Kochia plant response rating (0 to 100 scale) (kochia (Kochia scoparia) [12]): 10; Kochia plant response rating (kochia (Kochia scoparia) [12]): 0; Wheat plant response rating (0 to 100 scale) [13]: 0; Wheat plant response rating [13]: 0; Foxtail, Green plant response rating (0 to 100 scale) [14]: 0; Foxtail, Green plant response rating [14]: 0; Galium plant response rating (0 to 100 scale) [15]: 80; Galium plant response rating [15]: 0; Plant response rating, Rice (0 to 100 scale, 0 is no effect, 100 is complete control) (rice (Oryza sativa)): 0; Plant response rating, Ducksalad (0 to 100 scale, 0 is no effect, 100 is complete control) [16]: 0; Plant response rating, Barnyardgrass (0 to 100 scale, 0 is no effect, 100 is complete control) [17]: 0; Plant response rating, Sedge, Umbrella (0 to 100 scale, 0 is no effect, 100 is complete control) [18]: 0
